Laboratory results as given in patent US10266567B2, “Peptides and compositions comprising same and uses thereof in the treatment of diseases” (Ariel-University Research and Development Company Ltd., priority 2015, dated 2019).
“Also recorded” adds a separate entry of the source. Bridge positions count the residues as written; N and C are the ends. Ends that are not written are not given here.

Columns and labels:
[1] = Elevated Plus Maze (EPM) test in metastatic melanoma mice; assay type: in vivo; conditions: 0.3 mg/kg chronic, vs control, p<0.01
Experimental: The EPM apparatus comprises two closed (10 cm×45 cm×40 cm) and two open (10 cm×45 cm) arms that extend from a common central platform (10 cm×10 cm). The black apparatus is elevated to a height of 60 cm above floor level. The tests were conducted at the same time of the day (10.00-12.00 h) during the period of illumination in the mice's colony room. For habituation, all animals were placed in the experimental room one hour prior to the test. Each animal was placed at the center of the maze, facing one of the closed arms. Each mouse spent a five minute session in the EPM, during which the number of entries into open and closed arms as well as time spent in the open and closed arms were video scored.

B16-F10 melanoma cells = assay: Metastatic melanoma mice model using B16F10 cells; assay type: in vivo, C57BL/6 mice
Experimental: Metastatic melanoma mice model using B16F10 cells. Murine B16F10 cells grown in RPMI were harvested by trypsinization and washed with PBS. The cells were counted and resuspended in PBS to final concentrations of 1.0×10^5 cells/mL and were maintained at 4° C. for immediate i.v inoculation into the tail vein of C57BL6 male mice (Harlan Labs). Next day, following tumor cell inoculation, these animals received i.p. injection of ALOS peptide or saline. Injections were performed daily throughout the working week. Mice were weighed daily on the day of injection.
For analysis of the peptides' effect on melanoma nodule formation all mice were sacrificed 18 days following the i.v. injection. Organs were dissected analyzed visually. The lungs of sacrificed mice were rinsed in saline and fixed with Bouin's solution. The total number of visible nodules on the lung surface per animal was counted.
For analysis of the peptides' effect on survival of melanoma cell-inoculated mice, animals were observed several times a week for signs of lethargy such as weight loss, hunched position and epilepsy. In order to lessen suffering, when these symptoms occurred, mice were euthanized with cervical dislocation after CO2 anesthesia. Survival time was recorded and long-term survivors were defined as animals surviving longer than 3 times the median survival of non-treated animals.
ALOS3 and ALOS4 block melanoma growth in metastatic melanoma mice model: An important clinical problem of malignant tumors is that lethality is mostly attributed to metastasis of the primary neoplastic cells. Complete eradication of the primary malignant cells is usually limited, due to location of the tumor, spread to distant organs and severe side effects caused by treatment. The effects of ALOS 3 and 4 on artificial metastasis, using highly metastatic melanoma B16-F10 cells was studied. 5×10^4 cells of B16-F10/0.2 ml/mouse were injected into the tail vein of 8 weeks old C57BL/6 mice. […] 18 days later the mice were sacrificed, lungs were dissected and the total number of visible nodules on the lung surface was counted. […]

For “CAPSPSRLC (disulfide 1-9 (inferred)) [ALOS3]”, the “EPM performance (ratio of time spent in open arms to total time), anxiolytic effect” value [1] was “significantly increased the performance of the mice; also recorded: exerted anxiolytic effect”, the “Survival of metastatic melanoma mice” value (B16-F10 melanoma cells; 0.3 mg/kg daily i.p., 5×10^3 B16-F10 cells i.v., vs saline) was “significantly increased the survival; also recorded: significantly delayed animals' death” and the “Number of metastatic melanoma sites (visible nodules) in the lungs” value (B16-F10 melanoma cells; 0.3 mg/kg daily i.p., 5×10^4 B16-F10 cells i.v., day 18) was “significantly blocked the number of metastatic melanoma sites in the lungs”. For the same sequence, the “Animals' weight during treatment course” value (B16-F10 melanoma cells; metastatic melanoma mice, ALOS vs saline) was “did not show weight loss”.
